# Source: PubChem BioAssay (NCI)
# Values joined by “and” are separate entries in the source; they are usually repeats but may differ in a detail not shown here. Equal entries are not always repeated.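 Cells were grown in 96-well plates and exposed to each compound for 48 hours at five concentrations; endpoints were interpolated linearly between bracketing concentrations, or set to the highest concentration if not reached. GI50 = concentration required for 50% inhibition of growth. TGI marks complete inhibition of growth.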
# How the values were obtained:
# Experiment in all cases: growth of human tumour cells (NCI), 48 h
# [1] = test system: SF-295 CNS
# [2] = test system: UO-31 renal
# [3] = test system: OVCAR-3 ovarian
# [4] = test system: HS 578T breast
# [5] = test system: HT29 colon
# [6] = test system: HCT-15 colon
# [7] = test system: SK-OV-3 ovarian
# [8] = test system: CCRF-CEM leukemia
# [9] = test system: OVCAR-5 ovarian
# [10] = test system: RPMI-8226 leukemia
# [11] = test system: CAKI-1 renal
# [12] = test system: MOLT-4 leukemia
# [13] = test system: SF-268 CNS
# [14] = test system: SR leukemia
# [15] = test system: T-47D breast
# [16] = test system: MDA-N
# [17] = test system: HOP-62 NSCLC
# [18] = test system: SF-539 CNS
# [19] = test system: M14 melanoma
# [20] = test system: LOX IMVI melanoma
# [21] = test system: SK-MEL-2 melanoma
# [22] = test system: IGROV1 ovarian
# [23] = test system: NCI-H23 lung
# [24] = test system: 786-0 renal
# [25] = test system: KM12 colon
# [26] = test system: SK-MEL-5 melanoma
# [27] = test system: NCI-H460 lung
# [28] = test system: HCC-2998 colon
# [29] = test system: NCI/ADR-RES ovarian
# [30] = test system: NCI-H522 lung
# [31] = test system: SK-MEL-28 melanoma
# [32] = test system: OVCAR-8 ovarian
# [33] = test system: TK-10 renal
# [34] = test system: A498 renal
# [35] = test system: U251 CNS
# [36] = test system: K-562 leukemia
# [37] = test system: UACC-257 melanoma
# [38] = test system: EKVX NSCLC
# [39] = test system: MDA-MB-231 breast
# [40] = test system: MCF7 breast
# [41] = test system: ACHN renal
# [42] = test system: RXF 393 renal
# [43] = test system: HCT-116 colon
# [44] = test system: NCI-H226 lung
# [45] = test system: HOP-92 NSCLC
# [46] = test system: SW-620 colon
# [47] = test system: MDA-MB-435
# [48] = test system: DU-145 prostate
# [49] = test system: HL-60(TB) leukemia
# [50] = test system: PC-3 prostate
# [51] = test system: OVCAR-4 ovarian
# [52] = test system: SNB-19 CNS
# [53] = test system: SN12C renal
# [54] = test system: BT-549 breast
# [55] = test system: MALME-3M melanoma
# [56] = test system: A549 NSCLC
# [57] = test system: COLO 205 colon
# [58] = test system: UACC-62 melanoma
# [59] = test system: SNB-75 CNS
smiles,measurement,setting,value
CC1=CC(=O)CC(C)(C)C1/C=C/C(C)=C/C=C/C(C)=C/C=C/C=C(C)/C=C/C=C(C)/C=C/C1C(C)=CC(=O)CC1(C)C (centres undefined),TGI,[1],> 100000 nM
same,TGI,[2],> 100000 nM
same,TGI,[3],> 100000 nM
same,TGI,[4],> 100000 nM
same,TGI,[5],> 100 µM
same,TGI,[6],85 µM
same,TGI,[7],> 100000 nM
same,TGI,[8],> 100 µM
same,TGI,[9],> 100 µM
same,TGI,[10],> 100 µM
same,TGI,[11],> 100000 nM
same,TGI,[12],> 100 µM
same,TGI,[13],> 100 µM
same,TGI,[14],> 100 µM
same,TGI,[15],> 100 µM
same,TGI,[16],> 100 µM
same,TGI,[17],> 100 µM
same,TGI,[18],> 100000 nM
same,TGI,[19],> 100000 nM
same,TGI,[20],85600 nM
same,TGI,[21],> 100 µM
same,TGI,[22],> 100000 nM
same,TGI,[23],> 100 µM
same,TGI,[24],> 100 µM
same,TGI,[25],> 100 µM
same,TGI,[26],> 100 µM
same,TGI,[27],> 100 µM
same,TGI,[28],> 100 µM
same,TGI,[29],> 100000 nM
same,TGI,[30],52100 nM
same,TGI,[31],> 100 µM
same,TGI,[32],49000 nM
same,TGI,[33],> 100000 nM
same,TGI,[34],> 100 µM
same,TGI,[35],> 100 µM
same,TGI,[36],> 100 µM
same,TGI,[37],> 100000 nM
same,TGI,[38],> 100 µM
same,TGI,[39],> 100 µM
same,TGI,[40],> 100 µM
same,TGI,[41],> 100 µM
same,TGI,[42],> 100 µM
same,TGI,[43],55100 nM
same,TGI,[44],> 100000 nM
same,TGI,[45],62.8 µM
same,TGI,[46],> 100 µM
same,TGI,[47],71.4 µM
same,TGI,[48],> 100 µM
same,TGI,[49],> 100000 nM
same,TGI,[50],> 100 µM
same,TGI,[51],> 100000 nM
NC(Cc1ccc(OCc2ccccc2)cn1)C(=O)O (centres undefined),TGI,[1],> 100000 nM
same,TGI,[2],> 100000 nM
same,TGI,[3],> 100000 nM
same,TGI,[4],> 100000 nM
same,TGI,[5],> 100 µM
same,TGI,[6],> 100 µM
same,TGI,[8],> 100 µM
same,TGI,[9],> 100 µM
same,TGI,[10],> 100 µM
same,TGI,[11],> 100000 nM
same,TGI,[12],> 100 µM
same,TGI,[13],> 100 µM
same,TGI,[14],> 100 µM
same,TGI,[52],> 100000 nM
same,TGI,[16],> 100 µM
same,TGI,[17],> 100 µM
same,TGI,[53],> 100000 nM
same,TGI,[18],> 100000 nM
same,TGI,[20],> 100000 nM
same,TGI,[54],> 100 µM
same,TGI,[22],> 100000 nM
same,TGI,[23],> 100 µM
same,TGI,[24],> 100 µM
same,TGI,[55],> 100000 nM
same,TGI,[56],> 100 µM
same,TGI,[25],> 100 µM
same,TGI,[26],> 100 µM
same,TGI,[27],> 100 µM
same,TGI,[28],> 100 µM
same,TGI,[29],> 100000 nM
same,TGI,[30],> 100000 nM
same,TGI,[31],> 100 µM
same,TGI,[32],> 100000 nM
same,TGI,[33],> 100000 nM
same,TGI,[34],> 100 µM
same,TGI,[35],> 100 µM
same,TGI,[36],> 100 µM
same,TGI,[37],> 100000 nM
same,TGI,[38],> 100 µM
same,TGI,[57],> 100 µM
same,TGI,[39],> 100 µM
same,TGI,[40],> 100 µM
same,TGI,[41],> 100 µM
same,TGI,[42],> 100 µM
same,TGI,[43],> 100000 nM
same,TGI,[44],> 100000 nM
same,TGI,[46],> 100 µM
same,TGI,[47],> 100 µM
same,TGI,[48],> 100 µM
same,TGI,[49],> 100000 nM
same,TGI,[50],> 100 µM
O=[N+]([O-])c1cccc2nc3ccccc3c(NCCCn3ccnc3[N+](=O)[O-])c12,TGI,[1],214 nM and 41.5 nM
same,TGI,[2],5.95 nM and 38 nM
same,GI50,[3],12.2 nM
same,TGI,[3],17.8 nM and 63.3 nM
same,GI50,[4],10.9 nM
same,TGI,[4],89.9 nM and 41.5 nM
same,TGI,[58],18.7 nM
same,TGI,[5],0.00124 µM
same,TGI,[7],111 nM
same,GI50,[8],21.8 nM
same,GI50,[9],10.9 nM
same,TGI,[10],0.000419 µM
same,TGI,[11],81.6 nM and 188 nM
same,GI50,[14],< 0.1 nM
same,TGI,[14],0.131 µM
same,TGI,[52],15.3 nM
same,TGI,[16],0.000244 µM
same,TGI,[17],0.143 µM
same,TGI,[53],72.2 nM and 19.8 nM
same,TGI,[18],21.8 nM and 55 nM
same,TGI,[19],0.256 nM
same,TGI,[20],130 nM and 21.6 nM
same,GI50,[21],22 nM
same,GI50,[22],41.9 nM
same,TGI,[22],212 nM and 412 nM
same,TGI,[23],0.023 µM
same,TGI,[24],0.0137 µM
same,TGI,[55],1.07 nM
same,TGI,[27],0.0137 µM
same,TGI,[28],0.000515 µM
same,GI50,[29],12.5 nM
same,TGI,[29],495 nM and 348 nM
same,TGI,[30],16.7 nM and 25.2 nM
same,GI50,[31],45.4 µM
same,TGI,[32],12.6 nM and 16.7 nM
same,TGI,[33],48.9 nM and 39.2 nM
same,TGI,[35],0.00178 µM
same,TGI,[37],20.8 nM and 20.7 nM
same,GI50,[38],76.4 µM
same,TGI,[39],0.0119 µM
same,TGI,[40],0.00146 µM
same,GI50,[41],33.4 µM
same,TGI,[42],0.000768 µM
same,TGI,[59],77.5 nM
same,TGI,[43],1.98 nM and 18.8 nM
same,TGI,[44],3.62 nM and 35.1 nM
same,TGI,[46],0.103 µM
same,TGI,[47],0.000231 µM
same,TGI,[49],16.8 nM and 33.2 nM
same,TGI,[50],0.0236 µM
same,GI50,[51],20.3 nM
same,TGI,[51],73.5 nM and 171 nM
